# Data: US20220023269A1, “Methods Of Treating Diabetes In Severe Insulin-Resistant Diabetic Subjects” (Balticgruppen Bio AB, priority 2018, published 2022)
# Legend:
# DIO mice = assay: Prevention of dysglycemia and insulin resistance in DIO B6 mice (oral gavage, 8 w); format: in vivo; settings: 100 mg/kg/day each, oral gavage
# Experimental: MATSUDA index was calculated via: […] […] All cell lines were lysed in 0.1 M Tris-HCl, pH 6.8, 2% SDS, 10 mM sodium fluoride (SIGMA #S7920), 10 mM β-glycerophosphate (SIGMA #G6376), and 1 mM sodium vanadate (SIGMA #72060) and supernatant collected after 1 minute at 14,000 rpm. Islets (human and mouse) were lysed in 0.1 M Tris-HCl, pH 6.8, 2% SDS, protease inhibitor (Roche #04 693 124 001) and phosphatase inhibitor (Roche #04 906 837 001). […] The supernatant was collected after 2 min at 14,000 rpm. This procedure was repeated until all fat was eliminated and the supernatant was clear, at 4° C. Samples were analysed on 4-15% polyacrylamide gels. Values were normalised toward AMPKα, β-Actin, GAPDH or the respective non-phosphorylated counterpart. For RNA purification calf muscle, iWAT, interscapular BAT, and left lateral liver lobe was crushed in a pestle using liquid nitrogen before turning to respective RNA kit. RNA from liver was prepared using Total RNA isolation Nucleospin II Kit (Macherey-Nagel #740955.50). RNA from adipose tissue was prepared using RNeasy Lipid Tissue Mini kit (Qiagen #74804). RNA from calf muscle tissue was prepared using RNeasy Fibrous Tissue Mini kit (Qiagen #74704). First strand cDNA synthesis was done using SuperScript III (First-Strand Synthesis SuperMix for qRT-PCR, Invitrogen #11752-250) according to the manufacturer's instructions. Total RNA was prepared from isolated islets using RNeasy Micro Kit (Qiagen #74004) and first strand cDNA synthesis was done using Superscript III (Invitrogen #18080-051) according to the manufacturer's instructions. Quantification of mRNA expression levels was performed essentially as previously described (Reference 3).
# [1] = tested on: diet-induced obese C57BL/6J mice; assay: Combination therapy AMPK activator + SGLT2 inhibitor in DIO mice; format: in vivo; settings: 2 weeks oral gavage, Compound 1 75 mg/kg, canagliflozin 10 mg/kg
# Experimental: Male C57BL/6J mice, 8 weeks of age were purchased from Jackson, Charles River Laboratories, Inc. (Germany). All animals were housed in the Umeå University animal facility (Umeå Centre for Comparative Biology; UCCB) with a 12:12 hour light-dark cycle (lights on at 6 a.m.) and a constant temperature of 21° C. The animals were ear marked with a unique identification number, and groups of 5 mice were housed in transparent polycarbonate cages that comply with the requirements of the Code of Practice for the housing and care of animals used in scientific procedures. Wood chips were used as bedding material and environmental enrichment was provided. Animals were allowed to acclimate for 15 weeks to their new environment before the onset of the study. The animals were allowed ad libitum access to tap water throughout the accommodation and study period. During the acclimation period, the animals were allowed a standard pelleted diet (CRM (E) Rodent, Special Diets Services, Scanbur BK, Sweden). At the start of the study, the standard diet was changed to a very high fat diet (vHFD; Cat. No. D12492, Research Diets, Inc.) and this diet was kept throughout the whole study period. All of the procedures were approved by the Local Ethics Review Committee on Animal Experiments, Umeå Region.
# 23 Weeks old male C57BL/6J mice were fed HFD to promote diet-induced obesity (DIO) and administered once daily by oral gavage; vehicle (phosphate buffer pH 7.3, 2% w/v methyl cellulose; n=11), canagliflozin 10 mg/kg (n=14), Compound 1 at 75 mg/kg (n=14) and the combination of canagliflozin 10 mg/kg and Compound 1 at […] (n=15). After 2 weeks of treatment, fasted (6 hour) blood glucose and plasma insulin levels (determined in tail vein blood samples) were analysed. Food intake and weight were monitored throughout the study.
# Blood samples were collected from the tail vein in Potassium-EDTA vials and plasma was separated by centrifugation and stored at −20° C. until assayed. Plasma insulin was determined with mouse insulin ELISA (Ultra Sensitive Mouse insulin ELISA Kit). Glucose concentrations were analysed in tail vein blood using a OneTouch® Ultra®2 Blood Glucose Meter (LifeScan, Inc).
# Results shown in the figures are expressed as means±standard error of the mean (S.E.M.) for the number of animals per group. Statistical significance between the control group and the three treatment groups were analysed by Student's t-test, with P<0.05 considered statistically significant.
# AMPK in HeLa cells = assay: AMPK activation assay in HeLa cells (LKB1 null); format: cell-based, human; settings: 1 μM, last 20 minutes
# Experimental: All cell lines were lysed in 0.1 M Tris-HCl, pH 6.8, 2% SDS, 10 mM sodium fluoride (SIGMA #S7920), 10 mM β-glycerophosphate (SIGMA #G6376), and 1 mM sodium vanadate (SIGMA #72060) and supernatant collected after 1 minute at 14,000 rpm. Islets (human and mouse) were lysed in 0.1 M Tris-HCl, pH 6.8, 2% SDS, protease inhibitor (Roche #04 693 124 001) and phosphatase inhibitor (Roche #04 906 837 001). Right calf muscle, heart, iWAT, and interscapular BAT was crushed in a pestle using liquid nitrogen and homogenised in ice cold RIPA buffer (150 mM sodium chloride (SIGMA #S7653), 1.0% NP40 (USB), 0.5% sodium deoxycholate (SIGMA #D6750), 0.1% SDS, 50 mM Tris pH 8.0, 20 mM sodium pyrophosphate (SIGMA #71515), 10 mM sodium fluoride, 10 mM β-glycerolphosphate, 1 mM sodium vanadate and protease inhibitor cocktail (Roche #04693124001), 1 tablet/10 ml lysis buffer). The supernatant was collected after 2 min at 14,000 rpm. This procedure was repeated until all fat was eliminated and the supernatant was clear, at 4° C. Samples were analysed on 4-15% polyacrylamide gels. Values were normalised toward AMPKα, β-Actin, GAPDH or the respective non-phosphorylated counterpart.
# Table 3 contains origin of cell lines, growth conditions and settings for activation of AMPK via the test material. […]
# muscle = settings: in vivo; cited from earlier work
# hypertensive rats = settings: acute; cited from earlier work
compound,measurement,setting,value
"CN(C)C(=N)N=C(N)N [Metformin, reference compound]",HFD-provoked increase in fasted glucose,DIO mice; 6 w,no significant effect
same,HFD-provoked increase in fasted plasma insulin,DIO mice; 6 w,no significant effect
same,insulin resistance (HOMA-IR),DIO mice; vs vehicle,no significant effect
Cc1ccc([C@@H]2O[C@H](CO)[C@@H](O)[C@H](O)[C@H]2O)cc1Cc1ccc(-c2ccc(F)cc2)s1 [canagliflozin],HOMA-IR,[1],lesser reduction
same,fasted blood glucose,[1]; 6 hour fast,lesser reduction
same,fasted plasma insulin,[1]; 6 hour fast,lesser reduction
"C[C@H](CCC(=O)O)C[C@H](C)C[C@H](C)C(=O)/C=C(\O)[C@H](C)C[C@H](C)C/C=C/[C@@H](C)[C@@H](O)[C@@H](C)[C@@H](O)C[C@@H]1CC[C@@](C)([C@H]2CC[C@@](C)([C@@H](C)O)O2)O1 [ionomycin, reference compound]",AMPK activation (control),AMPK in HeLa cells,readily activated AMPK
"NC(=O)c1ncn([C@@H]2O[C@H](CO)[C@@H](O)[C@H]2O)c1N [AICAR, 5-aminoimidazole-4-carboxyamide-1-β-D-ribofuranoside]",microvascular perfusion in muscle,muscle,increases microvascular perfusion in muscle
same,blood pressure,hypertensive rats,acutely lower blood pressure
